Measurements reported in patent publication US7091238B1, “Thienylhydrazon with digitalis-like properties (positive inotropic effects)” (University of Maryland, priority 1999, dated 2006).
“Also recorded” adds a separate entry of the source.

Tests used:
[1] = test system: sarcoplasmic reticulum of human skeletal muscle fibers (vastus lateralis); assay: Induced tension in isolated human skeletal muscle fiber (sarcolemma removed); assay type: cell-based; settings: 25, 50, 100 μM, SR loaded at pCa 7.0 for 3 min
Method: FIG. 14. Isolated human skeletal muscle fiber from the vastus lateralis (sarcolemmal membrane-free) was exposed to 0.5 mM of CaCl2 to enable maximal muscle tension (Po). The histogram show the effect of LASSBio-294 at concentrations of 25, 50 and 100 μM on induced tension in human fibers. N=6 Calibration: Vertical; 10 mm=20 mg; Horizontal, 10 mm=40 s.
Isolated muscle fiber from the vastus lateralis was exposed to 0.5 mM of CaCl2 to enable maximal muscle tension.

particulate PDE 3 = assay: Direct inhibition of particulate PDE 3; assay type: biochemical; settings: rabbit heart
[2] = test system: Na^+/K^+-ATPase extracted from heart muscle or gastrocnemius muscle; assay: Effect on Na+/K+-ATPase; assay type: biochemical; settings: enzyme from rat heart or gastrocnemius muscle
particulate PDE 4 = assay: Direct inhibition of particulate PDE 4; assay type: biochemical; settings: rat heart
phosphodiesterase = assay: Phosphodiesterase direct effect; assay type: biochemical
Source text: Determination of phosphodiesterase direct effect was also negative.

single muscle fiber = assay: Fatigue development in single amphibian muscle fibers under repetitive tetanic stimulation; assay type: cell-based, frog, rana pipiens
Method: FIG. 17. Time course of fatigue development. Fatigue was produced by 60 Hz, 0.8 sec tetanic stimulations repeated every 4.75 sec with a twitch elicited 2.2 sec after each tetanic stimulation. a) single tetanus. b) repeated tetanic stimulations. Notice the time calibration. A) In 50 μM of DMSO only B) Same as in A, but the fiber was bathed with 50 μM of compound LASSBio-294.
FIG. 28. Time (in min) for tetanic force to decrease (fatigue) to 50% of the original tetanic force during repetitive stimulations as in FIG. 17. Left column in 50 μM of DMSO only (˜6 in). Right column in 50 μM of LASSBio-294 (˜9 min).
FIG. 29. Time of recovery to 80% of the pre-fatigue tetanic force. Left column in 50 μM of DMSO only (˜90 min). Right column in 50 μM of LASSBio-294 (˜10 min).
c. […] A is 50 μM DMSO in Ringer's solution, B is 50 μM LASSBio-294. The time to fatigue in LASSBio-294-treated is approximately 50% longer than control.
The tests in amphibians were performed in isolated single muscle cells freshly isolated from either the semitendinous or the tibialis anterior muscles of the frog, rana pipiens. The isolated muscle cells were left resting for at least half an hour in Ringer's solution. The fibers were then stimulated with single, low-voltage, electric shocks. If fibers gave brisk twitches and had no signs of membrane damage, they were used. Otherwise, they were discarded. Healthy fibers were transferred to the experimental chamber, which consisted of a 0.3 ml narrow channel where the solutions could be changed several times within five seconds. One tendon of the fiber was gripped with a small clamp and the other tendon was attached to a hook of an Ekhart;s type force transducer. The stimulating electrode consisted of platinum wires placed to each side of the fiber. The muscle fibers were stretched 1.3 times their slack length to reach approximately an average sarcomere length of 1.6 μm.
The fibers were stimulated with single electric pulses of 0.5 msec duration and variable voltage. The voltage was increased until the threshold for contraction was reached. […]

dogs = assay: Left intraventricular and arterial pressure in intact anesthetized dogs; assay type: in vivo, dog; settings: normal cardiac function, no pre-load, 1 mg kg^−1 min^−1 for 13 min
Method: FIG. 6. Recording of left intraventricular pressure and arterial pressure in dogs anesthetized and ventilated normally.
FIG. 6 illustrates a test that measured pressure from the hearts of intact dogs during LASSBio-294 application. Recordings were made of left intraventricular pressure and arterial pressure.
Dogs were anesthetized and normally ventilated. Recordings were made before and after application of LASSBio-294, 1 mg kg^−1 min^−1 for 13 min.

[3] = Plasma concentration kinetics; assay type: in vivo
Method: The plasma concentration of the drug reached a maximum at that time and afterwards tapered off to control levels within 2 hours.

tissues and organs = assay: Histopathological study of tissues and organs after daily injection; assay type: in vivo, rat; settings: 2 or 10 mg/kg injected daily for more than 14 days
[4] = test system: neuromuscular transmission; assay: Contractions of gastrocnemius muscle induced by stimulation of the sciatic nerve; assay type: in vivo; settings: rat gastrocnemius, vs DMSO vehicle
Method: FIG. 30. Records of contractions induced by stimulation of the sciatic nerve of equilibrated rat gastrocnemius muscles and of arterial pressure. In control, contractions were induced by intravenous injection of DMSO ([…]). LASSBio-294 was administered in DMSO. Calibration: Horizontal, 1 cm=24 s; Vertical 2 g=100 mm Hg.
FIG. 31. Records of contractions of rat gastrocnemius muscles induced by stimulation of the sciatic nerve and of arterial pressure. For control, contraction was induced by intravenous injection of […] (0.04 ml). LASSBio-294 was administered in DMSO.

O=C(NN=Cc1cccs1)c1ccc2c(c1)OCO2 [LASSBio-294, 3,4-methylenedioxybenzoyl-2-thienylhydrazone]
release of Ca^2+ from the sarcoplasmic reticulum / induced tension [1]: induces the release of Ca^2+; also recorded: evoked a contraction
direct inhibition of particulate PDE 3 (particulate PDE 3): did not inhibit directly
effect on Na^+/K^+-ATPase [2]: did not affect
direct inhibition of particulate PDE 4 (particulate PDE 4): did not inhibit directly
phosphodiesterase direct effect (phosphodiesterase): negative
time to fatigue, longer than control (single muscle fiber; 50 μM vs 50 μM DMSO, 60 Hz 0.8 sec tetanic stimulations): approximately 50%
time for tetanic force to decrease (fatigue) to 50% of the original tetanic force (single muscle fiber; 50 μM, repetitive stimulations): ~9 min
resistance to muscle fatigue (single muscle fiber; treated skeletal muscle fibers vs control fibers): increased resistance to muscle fatigue
left intraventricular pressure and arterial pressure (dogs): no change in pressure
retention time (RT); time of maximum plasma concentration [3]: 14.59 min
time for plasma concentration to taper off to control levels [3]: ≤ 2 h
histopathological changes in tissues and organs (tissues and organs): unaffected; also recorded: no pathological changes; also recorded: no significant histopathological changes
effect on neuromuscular junction / transmission [4]: no effect on the neuromuscular junction; also recorded: no effect on neuromuscular transmission; also recorded: unaffected
